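Results reflect a 48-hour exposure of cells in 96-well plates to compound at five concentrations. The concentration for 50% growth inhibition is given as GI50.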 Active and inactive are the calls of the source. No stated cut-off is given here; in the data, active = GI50 up to about 1.1 µM and inactive = higher.
Columns and labels:
Assay in all cases: growth of human tumour cells (NCI), 48 h
M14 = tested on: M14
TK-10 = tested on: TK-10
OVCAR-8 = tested on: OVCAR-8
SN12C = tested on: SN12C
SF-295 = tested on: SF-295
HL-60 = tested on: HL-60
IGROV-1 = tested on: IGROV-1
UO-31 = tested on: UO-31
DMS-273 = tested on: DMS-273
SNB-75 = tested on: SNB-75
HCT-15 = tested on: HCT-15
LXFL 529 = tested on: LXFL 529
KM12 = tested on: KM12
ACHN = tested on: ACHN
COLO 205 = tested on: COLO 205
HOP-62 = tested on: HOP-62
Malme-3M = tested on: Malme-3M
SK-OV-3 = tested on: SK-OV-3
MOLT-4 = tested on: MOLT-4
A549 = tested on: A549
KM-20L2 = tested on: KM-20L2
SNB-19 = tested on: SNB-19
OVCAR-5 = tested on: OVCAR-5
K562 = tested on: K562
SF-268 = tested on: SF-268
SK-MEL-2 = tested on: SK-MEL-2
M19-MEL = tested on: M19-MEL
SNB-78 = tested on: SNB-78
SK-MEL-5 = tested on: SK-MEL-5
CCRF-CEM = tested on: CCRF-CEM
A498 = tested on: A498
EKVX = tested on: EKVX
UACC-62 = tested on: UACC-62
RPMI-8226 = tested on: RPMI-8226
HOP-18 = tested on: HOP-18
NCI-H460 = tested on: NCI-H460
RXF 631 = tested on: RXF 631
DMS-114 = tested on: DMS-114
LOX IMVI = tested on: LOX IMVI
CAKI-1 = tested on: CAKI-1
OVCAR-3 = tested on: OVCAR-3
DLD-1 = tested on: DLD-1
HT-29 = tested on: HT-29
HCT-116 = tested on: HCT-116
786-0 = tested on: 786-0
SW-620 = tested on: SW-620
NCI-H23 = tested on: NCI-H23
UACC-257 = tested on: UACC-257
OVCAR-4 = tested on: OVCAR-4
HCC 2998 = tested on: HCC 2998
HOP-92 = tested on: HOP-92
SF-539 = tested on: SF-539
RXF 393 = tested on: RXF 393
SR = tested on: SR
XF498 = tested on: XF498
SK-MEL-28 = tested on: SK-MEL-28
NCI-H226 = tested on: NCI-H226
U-251 = tested on: U-251
NCI-H522 = tested on: NCI-H522

Structure (SMILES): CC1CC2OC(=O)CC2C[C@@H]1O[Si](C)(C)C(C)(C)C (stereo not given in full)
- GI50 (M14): 94.6 µM (inactive)
- GI50 (TK-10): > 100 µM (inactive)
- GI50 (OVCAR-8): 81.5 µM (inactive)
- GI50 (SN12C): > 100 µM (inactive)
- GI50 (SF-295): 58.7 µM (inactive)
- GI50 (HL-60): 20.6 µM (inactive)
- GI50 (IGROV-1): 74.5 µM (inactive)
- GI50 (UO-31): 57.7 µM (inactive)
- GI50 (DMS-273): 33.7 µM (inactive)
- GI50 (SNB-75): 51.4 µM (inactive)
- GI50 (HCT-15): 54.5 µM
- GI50 (LXFL 529): 68.7 µM (inactive)
- GI50 (KM12): 44.3 µM (inactive)
- GI50 (ACHN): 43.9 µM (inactive)
- GI50 (COLO 205): 74.6 µM (inactive)
- GI50 (HOP-62): 48.9 µM (inactive)
- GI50 (Malme-3M): 65.3 µM (inactive)
- GI50 (SK-OV-3): > 100 µM (inactive)
- GI50 (MOLT-4): 21.5 µM (inactive)
- GI50 (A549): 88.3 µM (inactive)
- GI50 (KM-20L2): 46.3 µM (inactive)
- GI50 (SNB-19): > 100 µM (inactive)
- GI50 (OVCAR-5): > 100 µM (inactive)
- GI50 (K562): 36.1 µM (inactive)
- GI50 (SF-268): 64.4 µM (inactive)
- GI50 (SK-MEL-2): 83.4 µM (inactive)
- GI50 (M19-MEL): 42.8 µM (inactive)
- GI50 (SNB-78): > 100 µM (inactive)
- GI50 (SK-MEL-5): 27 µM (inactive)
- GI50 (CCRF-CEM): 36.8 µM (inactive)
- GI50 (A498): > 10 µM (inactive)
- GI50 (EKVX): > 100 µM (inactive)
- GI50 (UACC-62): 68.7 µM (inactive)
- GI50 (RPMI-8226): 21.7 µM (inactive)
- GI50 (HOP-18): > 100 µM (inactive)
- GI50 (NCI-H460): 75.7 µM (inactive)
- GI50 (RXF 631): 44.5 µM (inactive)
- GI50 (DMS-114): 28 µM (inactive)
- GI50 (LOX IMVI): 55.7 µM (inactive)
- GI50 (CAKI-1): 70.5 µM (inactive)
- GI50 (OVCAR-3): 40.4 µM (inactive)
- GI50 (DLD-1): 83.4 µM (inactive)
- GI50 (HT-29): 40.5 µM (inactive)
- GI50 (HCT-116): 38.5 µM (inactive)
- GI50 (786-0): 80.9 µM (inactive)
- GI50 (SW-620): > 100 µM (inactive)
- GI50 (NCI-H23): 63 µM (inactive)
- GI50 (UACC-257): 61.8 µM (inactive)
- GI50 (OVCAR-4): 61 µM (inactive)
- GI50 (HCC 2998): 43.3 µM (inactive)
- GI50 (HOP-92): 3.68 µM (inactive)
- GI50 (SF-539): > 100 µM (inactive)

Structure (SMILES): NC(=O)COc1ccccc1
- GI50 (M14): > 100 µM (inactive)
- GI50 (TK-10): > 100 µM (inactive)
- GI50 (OVCAR-8): > 100 µM (inactive)
- GI50 (RXF 393): > 100 µM (inactive)
- GI50 (SN12C): > 100 µM (inactive)
- GI50 (SF-295): > 100 µM (inactive)
- GI50 (HL-60): > 100 µM (inactive)
- GI50 (IGROV-1): > 100 µM (inactive)
- GI50 (UO-31): > 100 µM (inactive)
- GI50 (DMS-273): > 100 µM (inactive)
- GI50 (SNB-75): > 100 µM (inactive)
- GI50 (HCT-15): > 100 µM
- GI50 (LXFL 529): > 100 µM (inactive)
- GI50 (KM12): > 100 µM (inactive)
- GI50 (ACHN): > 100 µM (inactive)
- GI50 (COLO 205): > 100 µM (inactive)
- GI50 (SR): > 100 µM (inactive)
- GI50 (HOP-62): > 100 µM (inactive)
- GI50 (Malme-3M): > 100 µM (inactive)
- GI50 (SK-OV-3): > 100 µM (inactive)
- GI50 (MOLT-4): > 100 µM (inactive)
- GI50 (A549): > 100 µM (inactive)
- GI50 (KM-20L2): > 100 µM (inactive)
- GI50 (SNB-19): > 100 µM (inactive)
- GI50 (OVCAR-5): > 100 µM (inactive)
- GI50 (K562): > 100 µM (inactive)
- GI50 (SF-268): > 100 µM (inactive)
- GI50 (SK-MEL-2): > 100 µM (inactive)
- GI50 (M19-MEL): > 100 µM (inactive)
- GI50 (XF498): > 100 µM (inactive)
- GI50 (SNB-78): > 100 µM (inactive)
- GI50 (SK-MEL-28): > 100 µM (inactive)
- GI50 (SK-MEL-5): > 100 µM (inactive)
- GI50 (CCRF-CEM): > 100 µM (inactive)
- GI50 (A498): > 100 µM (inactive)
- GI50 (EKVX): > 100 µM (inactive)
- GI50 (UACC-62): > 100 µM (inactive)
- GI50 (RPMI-8226): > 100 µM (inactive)
- GI50 (NCI-H460): > 100 µM (inactive)
- GI50 (RXF 631): > 100 µM (inactive)
- GI50 (DMS-114): > 100 µM (inactive)
- GI50 (LOX IMVI): > 100 µM (inactive)
- GI50 (CAKI-1): > 100 µM (inactive)
- GI50 (OVCAR-3): > 100 µM (inactive)
- GI50 (DLD-1): > 100 µM (inactive)
- GI50 (HT-29): > 100 µM (inactive)
- GI50 (NCI-H226): > 100 µM (inactive)
- GI50 (HCT-116): > 100 µM (inactive)
- GI50 (786-0): > 100 µM (inactive)
- GI50 (SW-620): > 100 µM (inactive)
- GI50 (NCI-H23): > 100 µM (inactive)
- GI50 (U-251): > 100 µM (inactive)
- GI50 (UACC-257): > 100 µM (inactive)
- GI50 (OVCAR-4): > 100 µM (inactive)
- GI50 (NCI-H522): > 100 µM (inactive)
- GI50 (HCC 2998): > 100 µM (inactive)
- GI50 (HOP-92): > 100 µM (inactive)
- GI50 (SF-539): > 100 µM (inactive)
